Measured values from patent US20250163057A1, “DCN-1 MODULATING COMPOUNDS AND METHODS OF USE THEREOF” (Cellarity, Inc., priority 2023, published 2025).
Like-named read-outs stand apart in the source and are kept apart here.

What was measured:
[1] = test system: Cullin-3 (CUL3) neddylation; assay: AlphaLISA assay for Cullin-3 (CUL3) neddylation in TF 1 cells; type: cell-based; settings: Homo sapiens, TF-1, 3 h, 3 hours treatment
Summary of the method: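 TF 1 cells in unsupplemented IMDM treated with compound concentrations for 3 h, then lysed. CUL3 neddylation detected by AlphaLISA (biotinylated anti-NEDD8, anti-CUL3 acceptor beads overnight, streptavidin donor beads 1 h); normalized to vehicle (0%) and 1 μM DI-1548 (100%), IC50 from Hill fits.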

[2] = target: T1, DCN1 (DCUND1) protein PONY domain (Homo sapiens (Human), UniProt Q96GG9); assay: TR-FRET assay, DCN1 binding with FAM-labeled probe
T1 sequence (Q96GG9 60-248): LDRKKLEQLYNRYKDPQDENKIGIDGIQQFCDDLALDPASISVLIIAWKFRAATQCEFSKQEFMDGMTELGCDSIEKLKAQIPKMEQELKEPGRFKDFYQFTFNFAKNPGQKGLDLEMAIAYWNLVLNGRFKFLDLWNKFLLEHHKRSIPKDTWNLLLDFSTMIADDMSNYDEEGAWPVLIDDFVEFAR
Summary of the method: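 TR-FRET ratio (Tb-DCN1 to FAM-probe) read at 1, 5 and 24 hrs after compound addition. Protein: recombinant PONY domain from E. coli, biotinylated and coupled to streptavidin terbium. Either 5 nM DCN1 with 20 nM FAM-probe, or 0.31 nM DCN1 with 100 nM FAM-labelled plus 800 nM unlabelled probe.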

[3] = target: T1, DCN1 (DCUND1) protein PONY domain; assay: Off-rate measurement of reversible covalent molecules (jump dilution TR-FRET with Cy5 probe); type: binding; settings: for Category: binding mode category from off-rate assay; for residence time: inverse of rate constant K; for residence time / half-life: jump dilution TR-FRET; for koff: jump dilution, Cy5 covalent probe 150 nM, TR-FRET; for half-life: ln(2)/K
Source text: A typical covalent compound is assumed to stay bound to a protein for at least the life of that protein in the cell. In reality, there is a range of how long a covalent compounds remains bound before a reverse reaction takes place. Thus, some covalent bonds can be labeled as reversible as their reverse reaction takes place in a measurable amount of time under physiological conditions. The assay capitalizes on the range of covalent binders by using a high affinity covalent binder as a probe to displace the more reversible binders in an adaptation of the jump dilution method.
In this version of the jump dilution method, the increase in covalent probe binding over time was measured through a TR-FRET reaction between the covalent probe and the biotinylated target protein.
The recombinant form of the DCN1 (DCUND1) protein PONY domain was produced using an E. coli expression system at Viva Biotech (China). The DCN1 protein was biotinylated (EZ sulfo-NHS-LC-biotin; Thermofisher) for labeling with streptavidin terbium (Tb) cryptate in the reaction. This biotinylated protein was used in two forms of the TR-FRET assay as described below.
The off-rate measurement is executed in two steps based on the jump dilution method. […] The greatest dilution allowed within the constraints of the assay was chosen. These factors allow a competitive advantage for the covalent probe to replace the test compound when that compound releases from the target protein. The actual measure is the rate of increased TR-FRET signal as the covalent probe replaces the test compound over time. […] The resulting time dependent curve of the TR-FRET signal is fit to the following equation:
Y=Y0+(Plateau−Y0)*(1−exp(−K*x))
K is the rate constant (1/unit of time). The residence time is defined as the inverse of K, the rate constant. The half-life is calculated as ln(2)/K.

[4] = target: DCN1 protein (Homo sapiens (Human), UniProt Q96GG9); assay: Intact Protein MS Analysis with the RapidFire-TOF System (covalent adduct formation); type: binding; settings: MS Emax; 400 nM DCN1, 3 hours at room temperature
DCN1 protein, sequence (Q96GG9 whole entry): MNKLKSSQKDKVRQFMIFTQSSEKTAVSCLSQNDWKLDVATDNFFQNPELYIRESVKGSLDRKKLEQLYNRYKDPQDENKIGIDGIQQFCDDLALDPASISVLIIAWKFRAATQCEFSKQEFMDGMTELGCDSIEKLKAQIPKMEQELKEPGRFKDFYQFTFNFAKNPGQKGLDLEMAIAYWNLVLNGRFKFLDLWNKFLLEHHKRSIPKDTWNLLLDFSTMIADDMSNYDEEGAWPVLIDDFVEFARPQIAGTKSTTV
Summary of the method: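 Tag-cleaved human DCN1 (400 nM) expressed in E. coli, in 25 mM Tris-HCl, 200 mM NaCl, 1 mM DTT, was incubated with 11 compound concentrations for 3 h at room temperature and quenched with 0.2% formic acid. Intact-protein Q-TOF MS with deconvolution detected the compound adduct mass.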

[5] = test system: fetal hemoglobin gene HBG1; assay: HBG1 Nanostring Assay in CD34+ HSPC erythroid differentiation culture; type: cell-based, human; settings: for EC50: Homo sapiens, 240 h, HBG1 induction, Day10 of erythroid differentiation; for Nanostring Ymax obs (%): relative to a control compound (C1)
Summary of the method: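 CD34+ HSPCs were dosed from day −2 (0.1% DMSO) through two-phase erythroid differentiation (EPO, transferrin, SCF, IL-3, insulin; IL-3 removed from day 7) at 37° C, 5% CO2. Day-10 lysates of 100K cells were hybridized at 67° C for 22 h for nCounter counting, normalized to ERCC and housekeeping controls. EC50 and Ymax were derived, with Ymax relative to a control compound.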

[6] = 24 hr after treatment with compound, read-out: TR FRET IC50 24 hr
[7] = read-out: TR FRET IC50 1 hr, 1 hr after treatment with compound
[8] = TR FRET IC50 1 hr (nM), 1 hr after treatment with compound

Row | Compound | IC50 [1] [nM] | IC50 [2, 6] [nM] | IC50 [2, 7] [nM] | Category [3] | residence time [3] [min] | koff [3] [s⁻¹] | half-life [3] [h] | % Adduct Formation [4] | IC50 [2, 8] [nM] | EC50 [5] [nM] | Nanostring Ymax obs (%) [5]
1 | CCN1C(=O)[C@@H](NC(=O)c2cccc(C(F)(F)F)c2)[C@@H](C2CC2)c2c(C(=O)N3CC[C@H]3C#N)nn(C3CCOCC3)c21 [Compound I-660] | ≤ 100 | ≤ 200 | ≤ 200 | reversible covalent | 266 | 6.28e-05 | 3.07 |  |  |  | 
2 | CCN1C(=O)[C@@H](NC(=O)c2cccc(C(F)(F)F)c2)[C@@H](c2ccc(F)cc2)c2c(C(=O)N3CCS(=O)(=O)C[C@H]3C#N)nn(C3CCOCC3)c21 (mixture of isomers) [Compound I-436] | ≤ 100 | ≤ 200 | ≤ 200 | reversible covalent | 76.7 | 0.000238 | 0.8857 |  |  |  | 
3 | CCN1C(=O)[C@@H](NC(=O)c2cccc(C(F)(F)F)c2)[C@@H](C2CC2)c2c(C(=O)N3CCOC[C@H]3C#N)nn(C3CCOCC3)c21 [Compound I-381] |  | ≤ 200 | ≤ 200 | reversible covalent | 297 | 5.62e-05 | 3.427 | +++ (MS Emax % adduct formation greater than 80.0 and less than or equal to 100.0) |  |  | 
4 | CCN1C(=O)[C@@H](NC(=O)c2cccc(C(F)(F)F)c2)[C@@H](C2CC2)c2c(C(=O)N3CCN(C)C[C@H]3C#N)nn(C3CCOCC3)c21 (single isomer, unassigned) [Compound I-430] | ≤ 100 | ≤ 200 |  | slow reversible |  |  |  |  | 200 to 1000 |  | 
5 | CCN1C(=O)[C@@H](NC(=O)c2cccc(C(F)(F)F)c2)[C@@H](c2ccc(F)cc2)c2c(NC(=O)/C=C/C(F)(F)F)nn(-c3ccccc3)c21 [Compound I-125] | ≤ 100 | 200 to 1000 | > 3000 |  |  |  |  | ++ (MS Emax % adduct formation greater than 30.0 and less than or equal to 80.0) |  | 100 to 1000 | +++ (Nanostring Ymax greater than 100.0)
6 | CCN1C(=O)[C@@H](NC(=O)c2cccc(C(F)(F)F)c2)[C@@H](c2ccc(F)cc2)c2c(NC(=O)CCl)nn(-c3ccccc3)c21 (racemic) [Compound I-161] | ≤ 100 | ≤ 200 |  |  |  |  |  | + (MS Emax % adduct formation greater than or equal to 0.0 and less than or equal to 30.0) | 1000 to 3000 | 100 to 1000 | ++ (Nanostring Ymax greater than 50.0 and less than or equal to 100.0)
7 | C=CC(=O)N(C)Cc1nn(-c2ccccc2)c2c1[C@H](c1ccc(F)cc1)[C@H](NC(=O)c1cccc(C(F)(F)F)c1)C(=O)N2CC (racemic) [Compound I-29] | > 1000 | 1000 to 3000 |  |  |  |  |  | + (MS Emax % adduct formation greater than or equal to 0.0 and less than or equal to 30.0) | 1000 to 3000 | > 1000 | + (Nanostring Ymax greater than or equal to 0.0 and less than or equal to 50.0)
8 | CCN1C(=O)[C@@H](NC(=O)c2cccc(C(F)(F)F)c2)[C@@H](c2ccc(F)cc2)c2c(CN3CC=CS3(=O)=O)nn(-c3ccccc3)c21 (racemic) [Compound I-110] | 100 to 1000 | 200 to 1000 |  |  |  |  |  | + (MS Emax % adduct formation greater than or equal to 0.0 and less than or equal to 30.0) | 200 to 1000 | > 1000 | + (Nanostring Ymax greater than or equal to 0.0 and less than or equal to 50.0)
9 | CCN1C(=O)[C@@H](NC(=O)c2cccc(C(F)(F)F)c2)[C@@H](c2ccc(F)cc2)c2c(C(=O)N3C[C@H](F)C[C@H]3C#N)nn(C3CCOCC3)c21 [Compound I-360] | ≤ 100 | ≤ 200 | ≤ 200 |  |  |  |  | +++ (MS Emax % adduct formation greater than 80.0 and less than or equal to 100.0) |  | ≤ 100 | +++ (Nanostring Ymax greater than 100.0)
10 | CCN1C(=O)[C@@H](NC(=O)c2cccc(C(F)(F)F)c2)[C@@H](C2CC2)c2c(C(=O)N3CS(=O)(=O)C[C@@H]3C#N)nn(C3CCOCC3)c21 [Compound I-560] | ≤ 100 | ≤ 200 | ≤ 200 | fast reversible | 44.1 | 0.000378 | 0.509 |  |  |  | 
11 | C=C(C(=O)O)c1nn(-c2ccccc2)c2c1[C@H](c1ccc(F)cc1)[C@H](NC(=O)c1cccc(C(F)(F)F)c1)C(=O)N2CC [Compound I-153, 2-((4S,5S)-7-ethyl-4-(4-fluorophenyl)-6-oxo-1-phenyl-5-(3-(trifluoromethyl)benzamido)-4,5,6,7-tetrahydro-1H-pyrazolo[3,4-b]pyridin-3-yl)acrylic acid] | ≤ 100 | ≤ 200 |  |  |  |  |  | ++ (MS Emax % adduct formation greater than 30.0 and less than or equal to 80.0) | 200 to 1000 | 100 to 1000 | ++ (Nanostring Ymax greater than 50.0 and less than or equal to 100.0)
12 | CCN1C(=O)[C@@H](NC(=O)c2cccc(C(F)(F)F)c2)[C@@H](c2ccc(F)cc2)c2c(C(=O)N3CCC[C@H]3C#N)nn(C3CCOCC3)c21 (mixture of isomers) [Compound I-292] | ≤ 100 | ≤ 200 | ≤ 200 |  |  |  |  | +++ (MS Emax % adduct formation greater than 80.0 and less than or equal to 100.0) |  | ≤ 100 | +++ (Nanostring Ymax greater than 100.0)
13 | CCN1C(=O)[C@@H](NC(=O)c2cccc(C(F)(F)F)c2)[C@@H](c2ccc(F)cc2)c2c(C(=O)NCC#N)nn(-c3ccccc3)c21 [Compound I-148] | 100 to 1000 | 200 to 1000 |  |  |  |  |  | +++ (MS Emax % adduct formation greater than 80.0 and less than or equal to 100.0) | 1000 to 3000 |  | + (Nanostring Ymax greater than or equal to 0.0 and less than or equal to 50.0)
14 | CCN1C(=O)[C@@H](NC(=O)c2cccc(C(F)(F)F)c2)[C@@H](c2ccc(F)cc2)c2c(NC(=O)[C@@H](C)Cl)nn(-c3ccccc3)c21 (mixture of isomers) [Compound I-101] | 100 to 1000 | 200 to 1000 |  |  |  |  |  | + (MS Emax % adduct formation greater than or equal to 0.0 and less than or equal to 30.0) | 200 to 1000 | > 1000 | ++ (Nanostring Ymax greater than 50.0 and less than or equal to 100.0)
15 | CCN1C(=O)[C@@H](NC(=O)c2cccc(C(F)(F)F)c2)[C@@H](c2ccc(F)cc2)c2c(C(=O)N3[C@H](C#N)C[C@H]4C[C@H]43)nn(C3COC3)c21 [Compound I-362, N-((4S,5S)-3-((1R,3S,5R)-3-cyano-2-azabicyclo[3.1.0]hexane-2-carbonyl)-7-ethyl-4-(4-fluorophenyl)-1-(oxetan-3-yl)-6-oxo-4,5,6,7-tetrahydro-1H-pyrazolo[3,4-b]pyridin-5-yl)-3-(trifluoromethyl)benzamide] | ≤ 100 | ≤ 200 | ≤ 200 |  |  |  |  | +++ (MS Emax % adduct formation greater than 80.0 and less than or equal to 100.0) |  | ≤ 100 | ++ (Nanostring Ymax greater than 50.0 and less than or equal to 100.0)
